Assay results: article PMC12390684 (Viruses, 2025)

Target: IN-GCN2 interaction (6xHis-IN / GST-GCN2) (UniProt P04585+Q9P2K8)
Test: biochemical
Type: binding, HIV-1 IN; human GCN2
Details: screen; for IN-GCN2 interaction (%): single dose 100 µM, single replicate, residual AlphaLISA signal normalized to DMSO control

IN-GCN2 interaction (6xHis-IN / GST-GCN2), sequence (Q9P2K8 192-1024, other chains not shown): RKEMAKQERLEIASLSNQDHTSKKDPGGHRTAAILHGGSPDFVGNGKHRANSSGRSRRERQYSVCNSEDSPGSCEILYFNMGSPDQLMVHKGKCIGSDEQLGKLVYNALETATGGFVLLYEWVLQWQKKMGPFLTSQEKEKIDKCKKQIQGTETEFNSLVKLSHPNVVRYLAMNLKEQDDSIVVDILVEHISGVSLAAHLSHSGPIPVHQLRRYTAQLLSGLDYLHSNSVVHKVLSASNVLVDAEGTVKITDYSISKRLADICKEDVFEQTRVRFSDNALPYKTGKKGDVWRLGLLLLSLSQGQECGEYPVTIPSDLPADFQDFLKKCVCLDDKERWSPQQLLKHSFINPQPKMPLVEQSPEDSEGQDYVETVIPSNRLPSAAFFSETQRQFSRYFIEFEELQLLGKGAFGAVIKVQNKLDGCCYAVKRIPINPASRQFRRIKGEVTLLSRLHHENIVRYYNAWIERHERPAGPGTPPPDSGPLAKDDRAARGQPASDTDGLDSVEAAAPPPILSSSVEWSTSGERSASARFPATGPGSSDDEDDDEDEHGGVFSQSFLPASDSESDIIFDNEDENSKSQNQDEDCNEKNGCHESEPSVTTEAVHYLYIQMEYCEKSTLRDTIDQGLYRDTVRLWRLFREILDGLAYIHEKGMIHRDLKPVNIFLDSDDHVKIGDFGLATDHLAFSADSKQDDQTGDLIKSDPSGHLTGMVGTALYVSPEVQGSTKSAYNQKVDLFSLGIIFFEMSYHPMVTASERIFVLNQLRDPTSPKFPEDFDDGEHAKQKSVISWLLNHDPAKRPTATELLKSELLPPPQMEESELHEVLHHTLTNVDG

Row | Structure (SMILES) | IN-GCN2 interaction (%) | further results
1 | COC(=O)[C@]1(C)CCC[C@]2(C)C3=CC(=O)[C@@]4(C(C)C)O[C@H]4[C@]3(O)CC[C@@H]12 [NSC337783] | 100.26 | –
2 | CN(C)c1ccc2c(SCC(=O)OCC(=O)[C@@]3(O)CC[C@H]4[C@@H]5CCC6=CC(=O)C=C[C@]6(C)[C@H]5C(=O)C[C@@]43C)c3ccc(N(C)C)cc3nc2c1 [NSC337851] | 15.16 | –
3 | CCC/C=C/C=C/C(=O)O[C@H]1/C(=C/C(=O)OC)C[C@H]2C[C@H]([C@@H](C)O)OC(=O)C[C@H](O)C[C@@H]3C[C@H](OC(C)=O)C(C)(C)[C@](O)(C[C@@H]4C/C(=C/C(=O)OC)C[C@H](/C=C/C(C)(C)[C@]1(O)O2)O4)O3 [NSC339555] | 32.23 | –
4 | CO[C@H]1C[C@@H]2\C=C(C)/C=C/C=C\C(=O)N[C@H](c3ccccc3)C/C=C/CC[C@H](O)CC(=O)C2=C1O [NSC343256] | 61.66 | –
5 | O=C1N[C@@H]2C(=C[C@H](O)[C@@H](O)[C@H]2O)c2cc3c(cc21)OCO3 [NSC349155] | 100.93 | –
6 | CC(O)CCC(=O)c1ccoc1 (stereo not shown) [NSC349438] | 84.65 | –
7 | COc1ccc2c(c1)O[C@H]1c3ccc(O)cc3OC[C@@H]21 [NSC350085] | 73.66 | –
8 | C=Cc1cc(OC)c2c(c1)c(=O)oc1c2cc(OC)c2c(O)ccc(C3OC(C)C(O)C(C)(O)C3O)c21 (stereo not shown) [NSC354844] | 85.63 | –
9 | CO[C@H]1[C@H](O)[C@@H](O)[C@H](n2c3c(Cl)cccc3c3c4c(c5c6cccc(Cl)c6[nH]c5c32)C(=O)NC4=O)O[C@@H]1CO [NSC359079] | 55.24 | –
10 | C=C1C(=O)OC2CC(C)C3(O)CCC(=O)C3(C)CC12 (stereo not shown) [NSC361902] | 90.19 | –
11 | CC(C)=CCCC(C)C1=C(O)C(=O)C(C)=CC1=O (stereo not shown) [NSC365793] | 50.48 | –
12 | C[C@@H]1CC[C@H]2[C@@H](C)C(=O)O[C@@H]3O[C@@]4(C)CC[C@@H]1[C@]32OO4 [NSC369397] | 101.56 | –
13 | CC1(C)CCC[C@]2(C)C3=C(CC[C@@H]12)C(=O)OC3 [NSC375294] | 100.67 | –
14 | CC[C@H](C)[C@@H]([C@@H](CC(=O)N1CCC[C@H]1[C@H](OC)[C@@H](C)C(=O)N[C@@H](Cc1ccccc1)c1nccs1)OC)N(C)C(=O)[C@@H](NC(=O)[C@H](C(C)C)N(C)C)C(C)C [NSC376128] | 96.15 | –
15 | COc1cc2oc3cc(=O)cc4oc(-c5ccccc5)cc(c2c2c1CCC(c1ccccc1)O2)c43 (stereo not shown) [NSC376248] | 71.04 | –
16 | CC1(C)C(=O)N2c3ccccc3C3(CC(N4C(=O)c5ccccc5C4=O)C(=O)O3)C2N1C(=O)OCc1ccccc1 (stereo not shown) [NSC382796] | 53.34 | –
17 | CC1=C2C(=CC(C)(C)[C@@H]2O)C(=O)[C@](C)(O)C12CC2 [NSC400978] | 28.97 | –
18 | C[C@H]1CO[C@H]2C3=C(C(=O)C=CC3=O)[C@@H]3OC(=O)[C@H]4CC[C@@H]5[C@H]1CC[C@@]52[C@@H]43 [NSC401005] | 52.24 | –
19 | COc1cc([C@@H]2c3cc4c(cc3C[C@H]3COC(=O)[C@@H]32)OCO4)cc(OC)c1OC [NSC403148] | 91.16 | –
20 | COc1cc2c(c3c1c(=O)c1ccccc1n3C)C=CC(C)(C)O2 [NSC403169] | 89.07 | –
21 | O=c1oc2c(O)c(O)cc3c(=O)oc4c(O)c(O)cc1c4c23 [NSC407286] | 49.11 | –
22 | COC(=O)[C@H]1[C@H]2C[C@H]3c4[nH]c5ccccc5c4CCN3C[C@@H]2CC[C@@H]1O [NSC407306] | 114.25 | –

Row | Structure (SMILES) | IN-GCN2 interaction (%) | further results
23 | COc1cc(O[C@@H]2O[C@H](CO)[C@@H](O)[C@H](O)[C@H]2O)c2c(c1)O[C@H](c1ccc(O)cc1)CC2=O [NSC407308] | 92.73 | –
24 | C[C@]12CC[C@H](O)C[C@H]1CC[C@@H]1[C@@H]2CC[C@]2(C)[C@@H](C3=CC(=O)OC3)CC[C@]12O [NSC407806] | 101.32 | –
25 | CSC1SC[C@H]2C(=O)N(C)[C@@H](C(C)C)C(=O)OC[C@@H](NC(=O)c3cnc4ccccc4n3)C(=O)N[C@@H](C)C(=O)N(C)[C@@H]1C(=O)N(C)[C@@H](C(C)C)C(=O)OC[C@@H](NC(=O)c1cnc3ccccc3n1)C(=O)N[C@@H](C)C(=O)N2C (stereo partly shown) [NSC526417] | 53.14 | –
26 | COc1cccc2c1C1COC3C4CC(C(=O)O)C(C(C2)N13)N4C.O=C(O)CC(O)(CC(=O)O)C(=O)O (stereo not shown) [NSC601422] | 152.09 | –
27 | COc1cccc2c1[C@H](CO)N1[C@H](C#N)[C@@H]3C[C@H](C(=O)O)[C@@H]([C@@H]1C2)N3C [NSC607097] | 110.01 | –
28 | O[C@@H]1[C@@H](O)[C@@H](O)CN2CC[C@H](O)[C@@H]12 [NSC614552] | 134.45 | –
29 | CCc1c2c(nc3ccc(OC(=O)N4CCC(N5CCCCC5)CC4)cc13)-c1cc3c(c(=O)n1C2)COC(=O)[C@]3(O)CC [NSC616348] | 97.94 | –
30 | CC(=O)CCCCn1c(=O)c2c(ncn2C)n(C)c1=O [NSC637086] | 87.24 | –
31 | C=C1C(=O)C23C(O)C1CCC2C12CCCC(C)(COC(C)=O)C1C(O)C3(O)OC2 (stereo not shown) [NSC642099] | 95.31 | –
32 | COc1ccc2c3c([nH]c2c1)[C@H](C=C(C)C)N1C(=O)[C@@H]2CCCN2C(=O)[C@@H]1C3 [NSC719655] | 66.56 | –
33 | COc1c(OC)c2c3c(nccc3c1OC)C(=O)c1cc(O)ccc1-2 [NSC785143] | 30.28 | –
34 | COc1c(OC)c2c3c(nccc3c1OC)-c1cc(=O)c(OC)ccc1-2 [NSC785144] | 14.73 | –
35 | COc1cc2c3c(c1OC)-c1ccccc1C[C@H]3N(C)CC2 [NSC785145] | 66.76 | –
36 | COc1ccc2c(c1OC)-c1c(OC)c(OC)cc3c1[C@H](C2)N(C)CC3 [NSC785146] | 58.90 | –
37 | COc1c(O)ccc2c1-c1c3c(cc4c1[C@H](C2)N(C)CC4)OCO3 [NSC785147] | – | IN-GCN2 interaction (%) (listed as 785147): 67.05%
38 | COc1c(O)ccc2c1-c1c3c(cc4c1[C@H](C2)NCC4)OCO3 [NSC785148] | 69.85 | –
39 | COc1c(OC)c2c3c(nccc3c1OC)C(=O)c1ccccc1-2 [NSC785149] | 57.46 | –
40 | COc1c(OC)c2c3c(ncc(OC)c3c1OC)C(=O)c1ccccc1-2 [NSC785150] | 58.33 | –
41 | COc1c(OC)c(OC)c2c3c(cc4ccccc42)NC(=O)C(=O)c13 [NSC785151] | 48.18 | –
42 | COc1ccc2c(c1O)-c1cccc3c1[C@@H](C2)N(C)CC3 [NSC785152] | 66.28 | –
43 | COc1ccc2c(c1OC)-c1cccc3c1[C@@H](C2)N(C)CC3 [NSC785153] | 61.13 | –
44 | c1ccc2c(c1)cc1c3c(cc4c(c32)OCO4)CCN1 [NSC785156] | 39.07 | –

Row | Structure (SMILES) | IN-GCN2 interaction (%) | further results
45 | c1cc2c(c3c1C[C@@H]1NCCc4cc5c(c-3c41)OCO5)OCO2 [NSC785157] | 72.19 | –
46 | COc1cc2c3c(c1O)-c1ccccc1C[C@@H]3N(C)CC2 [NSC785159] | – | effect on IN-GCN2 interaction in the screen, in words (100 µM, inactive = within 10% of the DMSO control): inactive; IN-GCN2 interaction (%) (listed as 785159): 94.21%
47 | COc1cc2c3c(c1OC)-c1cc4c(cc1C[C@@H]3N(C)CC2)OCO4 [NSC785161] | 55.76 | –
48 | COc1ccc2c(c1OC)-c1c3c(cc4c1[C@H](C2)N(C)CC4)OCO3 [NSC785162] | 46.45 | –
49 | COc1cc2c(c(O)c1OC)C[C@H]1c3c(c(OC)c4c(c3-2)OCO4)CCN1C [NSC785163] | 34.56 | –
50 | CN1CCc2cc3c(c4c2[C@H]1Cc1ccccc1-4)OCO3 [NSC785164] | 64.36 | –
51 | COc1cc2c3c(c1O)C1(C=CC(=O)C=C1)C[C@@H]3N(C)CC2 [NSC785166] | 94.62 | –
52 | COc1cc2c3c(c1O)-c1cc(O)ccc1C[C@H]3N(C)CC2 [NSC785167] | 75.29 | –
53 | CCOc1ccc2c(c1)-c1c(O)c(OC)cc3c1[C@H](C2)N(C)CC3 [NSC785169] | 40.02 | –
54 | COc1cc2c3c(c1O)-c1ccccc1C[C@@H]3N(C)CC2 [NSC785170] | – | IN-GCN2 interaction (%) (listed as 785170): 99.49%
55 | COc1cc2c(cc1OC)[C@@H](Cc1ccc(O)cc1)N(C)CC2 [NSC785172] | 91.61 | –
56 | COc1cc2c3c(c1O)Oc1ccc(cc1)C[C@@H]1c4c(cc(OC)c(OC)c4Oc4ccc(cc4)C[C@@H]3N(C)CC2)CCN1C [NSC785173] | 45.72 | –
57 | COc1cc2c3c(c1OC)Oc1ccc(cc1)C[C@H]1c4c(cc(OC)c(OC)c4Oc4ccc(cc4)C[C@H]3N(C)CC2)CCN1C [NSC785174] | 57.96 | –
58 | COC1=C[C@@H]2[C@@H]3Cc4ccc(OC)c(O)c4[C@]2(CCN3C)CC1=O [NSC785175] | 87.66 | –
59 | COc1cc2c3c(c1O)-c1ccccc1CC3N(C)CC2 (stereo not shown) [NSC785177] | 73.43 | –
60 | COc1cc2c(cc1O)C[C@H]1c3c(c(OC)c4c(c3-2)OCO4)CCN1C [NSC785179] | 39.12 | –
61 | CC[C@]12CCCN3CC[C@]4(C(=C(C(=O)OC)C1)Nc1ccccc14)[C@@H]32 [NSC785180] | 67.39 | –
62 | COc1c(O)ccc2c1-c1c3c(cc4c1[C@H](C2)N(C)CC4)OCO3 [NSC785181] | – | IN-GCN2 interaction (%) (listed as 785181): 54.07%
63 | COc1c(O)ccc2c1-c1c3c(cc4c1[C@H](C2)N(C)CC4)OCO3 [NSC785182] | – | IN-GCN2 interaction (%) (listed as 785182): 74.81%
64 | COc1cc2c(cc1O)[C@@H](Cc1ccc(Oc3cc(C[C@H]4c5cc(O)c(OC)cc5CCN4C)ccc3OC)cc1)N(C)CC2 [NSC785183] | 47.22 | –
65 | COc1cc2c(cc1O)[C@@H](Cc1ccc(Oc3cc(C[C@H]4c5cc(O)c(OC)cc5CCN4C)ccc3O)cc1)N(C)CC2 [NSC785184] | 46.86 | –
66 | CCOc1cc2c(cc1OC)CCN[C@H]2Cc1ccc(O)cc1 [NSC785185] | 75.32 | –
